One test relates to INS-1 cells. Put plainly: Stimulation test of insulin secretion by INS-1 cells. In kind it is cell-based. The settings on record: Rattus norvegicus, INS1, 1 h, insulin secretion by INS-1 cells in response to glucose; for insulin secretion, % of control at 10 µM: read-out: HGP % of ctrl @ 10 μM; for insulin secretion, % of control at 50 µM: read-out: HGP % of ctrl @ 50 μM. Here is the method:
The different compounds were tested on an INS-1 beta-pancreatic line in order to evaluate their capability of potentializing the insulin secretion in response to glucose. Very briefly, the cells are cultivated in a culture medium, RPMI 1640 with 10 mM glucose containing 1 mM of sodium pyruvate, 50 μM of 2-mercaptoethanol, 2 mM of glutamine, 10 mM of HEPES, 100 IU/ml of penicillin, 100 μg/ml of streptomycin and 10% of inactivated fetal calf serum, as described by Asfari et al.. For the insulin secretion test, the INS-1 cells are sown and cultivated in 96-well plates. After 3 days of cultivation at 37° C. in a humid atmosphere (95% air/5% CO2), the medium is removed and the cells are incubated for 16 h in a medium containing 5 mM of glucose and 1% of inactivated fetal calf serum. On the day of the test, the cells are washed with a Krebs buffer (pH 7.4) containing 0.1% of bovine albumin and then pre-incubated for 30 min at 37° C. in this same buffer containing 2.8 mM of glucose. Finally, the cells are again washed with Krebs buffer and then incubated for 1 h in the buffer of the secretion test (Krebs, pH 7.4 containing 0.1% of bovine albumin and 3.5 mM of glucose and molecules to be evaluated). At the end of the test, the cell supernatant is recovered in order to measure therein the secreted insulin, by means of an ELISA kit using a rat anti-insulin antibody (ELISA Alpco Cat no. 80-INSRTH-E10). Each condition is tested in triplicate. The 3.5 mM glucose, the 10^−7M GLP-1 and the Forskoline 10^−7/IBMX 10^−5M mixtures are used as positive controls of the test. A compound stimulates the secretion of insulin if this factor is greater than or equal to 130% of the control for a given glucose dose.

The next test relates to isolated rat hepatocytes. Put plainly: Hepatic production of glucose, 3 h incubation. It counts as cell-based, Wistar rat. The settings on record: for activity at 50 µM / activity at 100 µM: Hepatocyte, rat hepatocytes; for activity at 50 µM: read-out: HGP % of ctrl @ 50 μM; for activity at 100 µM: read-out: HGP % of ctrl @ 100 μM. As to the method: The hepatocytes are isolated from Wistar rat liver having fasted for 24 h after perfusion of collagenase in the portal vein. 1) The freshly isolated hepatocytes are sown in 6-well plates coated with collagen and containing an adhesion medium (Williams Medium). After adhesion, the medium is replaced with RPMI 1640 medium without any glucose, containing hydrocortisone (7·10^−5M) for a duration from 16 to 18 h. The next day, the glucose hepatic production test is conducted in a Krebs medium for 3 h. The basal conditions are cells incubated with only Krebs, the stimulated conditions are the cells placed in Krebs+lactate+pyruvate, the produced conditions are the cells exposed to chemical compounds in a Krebs/lactate/pyruvate medium. In the case when the compounds are dissolved in DMSO, all the conditions of the tests are met in the presence of a final concentration of 0.1% DMSO. The positive control of the test is the mercaptopicolinate known for its inhibitory action on hepatic production of glucose via the phosphoenolpyruvate carboxykinase. For short term treatments, the compounds are incubated for 3 h. For long term treatments, the compounds are incubated for 20 h at the moment when the hepatocytes are cultivated in RPMI and then added during the hepatic production test for 3 h. At the end of the 3 hours of incubation, the supernatant is recovered for measurement of glucose with a colorimetric method using glucose oxidase. The cells are lysed with a 0.1% NaOH aqueous solution in order to measure the amount of protein with the Lowry method. The results are expressed in mmol of glucose per mg of protein.

Nine compounds from patent US9381191B2, “Imidazopyridine derivatives useful in treating diabetes” (METABRAIN RESEARCH, priority 2012, dated 2016) can be followed below.

Take `CCOC(=O)COCc1nc2ccccn2c1C#Cc1ccc(F)cc1` [Derivative 3, ethyl 2-((3-((4-fluorophenyl)-ethynyl)imidazo[1,2-a]pyridin-2-yl)methoxy)acetate]: in the test with INS-1 cells, the insulin secretion, % of control at 10 µM amounted to 130% and the insulin secretion, % of control at 50 µM was 472%. Besides, in the test with isolated rat hepatocytes, the activity at 50 µM was 73% and the activity at 100 µM stood at 60%.
On the same counts, the results for `COC(=O)c1ccccc1OCc1nc2ccccn2c1C#Cc1cccc(C#N)c1` [Derivative 79, methyl 2-((3-((3-cyanophenyl)-ethynyl)imidazo[1,2-a]pyridin-2-yl)methoxy)benzoate] are 128%, 152%, 86% and 74%.
Take `COC(=O)c1ccccc1OCc1nc2ccccn2c1C#Cc1ccccc1` [Derivative 78, methyl 2-((3-(phenylethynyl)-imidazo[1,2-a]pyridin-2-yl)methoxy)benzoate]: in the test with INS-1 cells, the insulin secretion, % of control at 10 µM turned out to be 197% and the insulin secretion, % of control at 50 µM was 152%. In addition, in the test on isolated rat hepatocytes, the activity at 50 µM came to 51% and the activity at 100 µM came to 44%. Further, the “inhibition of hepatic production of glucose” value in the test with isolated rat hepatocytes (with two doses) is “strongest inhibitions”.
As for `CCOC(=O)CSCc1nc2ccc(Cl)cn2c1C#Cc1cccc(C(F)(F)F)c1` [Derivative 111, ethyl 2-[[6-chloro-3-[2-[3-(trifluoro-methyl)phenyl]ethynyl]imidazo [1,2-a]pyridin-2-yl]methylsulfanyl]acetate], in the test with INS-1 cells, the insulin secretion, % of control at 10 µM came out at 136% and the insulin secretion, % of control at 50 µM was determined as 173%. Further, in the test with isolated rat hepatocytes, the activity at 50 µM came to 73% and the activity at 100 µM came to 27%. The “inhibition of hepatic production of glucose” value in the test on isolated rat hepatocytes (dose of 100 μM) is “strongest inhibitions”.
On the same counts, the results for `CCOC(=O)CSCc1nc2ccc(Cl)cn2c1C#Cc1cccc(OC(F)(F)F)c1` [Derivative 112, ethyl 2-[[6-chloro-3-[2-[3-(trifluoromethoxy)phenyl]ethynyl]imidazo[1,2-a]pyridin-2-yl]methylsulfanyl]acetate] are 150%, 256%, 65%, 26% and “strongest inhibitions”.
In the same order, the values of `O=C(O)c1ccccc1OCc1nc2ccccn2c1C#Cc1ccc(F)cc1` [Derivative 88, 2-((3-((4-fluorophenyl)ethynyl)-imidazo[1,2-a]pyridin-2-yl)methoxy)benzoic acid] are 138%, 263%, 67%, 50% and “strongest inhibitions”.
With `CCOC(=O)COCc1nc2ccccn2c1C#Cc1cccc(C#N)c1` [Derivative 14, ethyl 2-((3-((3-cyanophenyl)-ethynyl)imidazo[1,2-a]pyridin-2-yl)methoxy)acetate], in the test with INS-1 cells, the insulin secretion, % of control at 10 µM is 100% and the insulin secretion, % of control at 50 µM is 242%. Besides, in the test on isolated rat hepatocytes, the activity at 50 µM was found to be 86% and the activity at 100 µM was 73%.
Regarding `CCOC(=O)COCc1nc2ccccn2c1C#Cc1ccccc1F` [Derivative 25, ethyl 2-((3-((2-fluorophenyl)-ethynyl)imidazo[1,2-a]pyridin-2-yl)methoxy)acetate], in the test on INS-1 cells, the insulin secretion, % of control at 10 µM came to 134% and the insulin secretion, % of control at 50 µM amounted to 226%. In the test with isolated rat hepatocytes, the activity at 50 µM was 83% and the activity at 100 µM amounted to 73%.
Turning to `CCOC(=O)COCc1nc2ccccn2c1C#Cc1ccccc1C(F)(F)F` [Derivative 26, ethyl 2-((3-((2-(trifluoromethyl)-phenyl)ethynyl)imidazo[1,2-a]pyridin-2-yl)methoxy)acetate], in the test on INS-1 cells, the insulin secretion, % of control at 10 µM came to 138% and the insulin secretion, % of control at 50 µM came out at 246%. In the test with isolated rat hepatocytes, the activity at 50 µM stood at 78% and the activity at 100 µM amounted to 67%.
